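Results reflect a 48-hour exposure of cells in 96-well plates to compound at five concentrations. The concentration for full growth arrest is given as TGI.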
Experiments:
Assay in all cases: inhibition of tumour cell growth, NCI panel, 48 h
CCRF-CEM leukemia = system: CCRF-CEM leukemia
SK-MEL-5 melanoma = system: SK-MEL-5 melanoma
CAKI-1 renal = system: CAKI-1 renal
HOP-92 NSCLC = system: HOP-92 NSCLC
MCF7 breast = system: MCF7 breast
M14 melanoma = system: M14 melanoma
HS 578T breast = system: HS 578T breast
NCI/ADR-RES ovarian = system: NCI/ADR-RES ovarian
IGROV1 ovarian = system: IGROV1 ovarian
786-0 renal = system: 786-0 renal

Structure (SMILES)	TGI (CCRF-CEM leukemia) [µM]	TGI (SK-MEL-5 melanoma) [µM]	TGI (CAKI-1 renal) [µM]	TGI (HOP-92 NSCLC) [µM]	TGI (MCF7 breast) [µM]	TGI (M14 melanoma) [µM]	TGI (HS 578T breast) [µM]	TGI (NCI/ADR-RES ovarian) [µM]	TGI (IGROV1 ovarian) [µM]	TGI (786-0 renal) [µM]
CCOC(=O)c1csc(NC(=O)CCN2CCN(C)CC2)n1	> 100	> 100	> 100	> 100	> 100	> 100	> 100	> 100		
Cc1ccc(C)c(COCCOCn2cc(N3CCOCC3)c(=O)[nH]c2=O)c1	> 100		> 100	> 100	> 100	> 100	> 100	> 100	> 100	> 100
CC/C=N\N1C(N)=C(C#N)C(C#N)(C#N)C1CC (stereo not given)	> 100	> 100	> 100		> 100	> 100	> 100	> 100	> 100	> 100
O=C(C(=C(I)I)c1ccccc1)c1ccccc1	51.7	30.9	> 100	82.9	> 100	73.3	43.2	> 100	44.4	
O=C1c2cc3c(cc2CC12Cc1ccc4c(c1C2=O)CCC4)CCC3 (stereo not given)	> 100	> 100	> 100	> 100	> 100	> 100	> 100	> 100	> 100	> 100
CCOC(=O)/C=C/CCC(C)(C)COC(C)=O	> 10	> 10	> 10	> 10	> 10	> 10	> 10	> 10	> 10	> 10
CCOC(=O)c1csc(NC(=O)CCN2CCCC2)n1	> 100	> 100	> 100	> 100	> 100	> 100		> 100	> 100	
CCOC(=O)N1CCN(c2c(N)nc(C)[nH]c2=O)CC1	> 100			> 100	> 100	> 100	> 100	> 100		> 100
CC[C@]12C=CCN3CCC4(c5cc([C@@]6(C(=O)OC)CC7CN(CCc8c6[nH]c6ccccc86)CC6CCCCC67)c(OC)cc5N(C)C4[C@](O)(C(=O)OC)C1OC(C)=O)[C@@H]32 (stereo not given in full)	> 20.6	1.53	12	1.5		1.35	< 0.01	0.512	0.651	11
C=C(C)[C@H]1CC23C(=O)[C@@](C)(C[C@H]2C1(C)C)C(=O)C(C(=O)C(C)C)=C3O	24.9	31.5	55.3		32.6	31.4	58.1	27.8	32.7	35
O=C(Nc1nn(C(=O)c2cccnc2)c(=O)s1)c1ccc(Cl)cc1	> 100	> 100	> 100	> 100	> 100	> 100	60.3	> 100		> 100
N#CCCN(CCC#N)c1ccc(C(N=Nc2ccccc2)=Nc2ccc(F)cc2)cc1		> 100	> 100	> 100	> 100	> 100	> 100	> 100	> 100	> 100
CC(C)=C/C(CC(O)(C(F)(F)F)C(F)(F)F)=N\O	> 100	> 100		> 100	> 100	> 100	> 100	> 100	> 100	> 100
O=C(c1ccco1)N(C(=O)N1CCC(c2ccccc2)CC1)c1ccccc1	> 100	51.5	> 100		> 100	> 100	> 100	91	> 100	> 100
COc1ccc(C(=O)/C=C/SC(=NC#N)SC)cc1		39	54.8	> 100	38.2	35.1	68.3	42.3	57.3	38.8
CC(=N/NC(=S)N(C)C)/C(=N\NC(=S)N(C)C)c1ccccc1		3.14	6.96	3.53	> 25.6	4.14	6.26	4.99	3.36	4.04
CSc1nc(Cl)c2c(n1)Sc1nc3ccccc3n1C2O (stereo not given)	24.6	> 100		26.6	> 100	> 100	> 68.8	> 24.4	> 100	18
OC(CC(O)(C(F)(F)Cl)C(F)(F)Cl)c1ccccc1 (stereo not given)	> 10	0.0502	> 10	> 10	> 10		> 10	> 10	0.0883	
CN(C)/N=N/c1nc2c(c(=O)n(C)c(=O)n2C)n1CC1CO1 (stereo not given)	> 100	25.5	38.9		26.1	32.6		41.1	29.9	57.5
CCOC(=O)C(NC(=O)c1cccc(Cl)c1)(Nc1cccc(C)c1)C(F)(F)F (stereo not given)	> 100	30.9	47.5	29	39		49.4	38.8	34.8	47
NCCCCNCCCN1CCOC1=O	> 100	> 100	> 100		> 100	> 100	> 100	> 100	> 100	> 100
CCCn1cc2c3c(cccc31)C1C=C(C)CN(C)C1C2 (stereo not given)	44.9	38.3	44.2	37.9	37.8			58.8	60.4	
O=C1CSC(c2c[nH]c3ccccc23)N1c1ccc(Cl)cc1Cl (stereo not given)	> 100	> 100		> 100	> 100	> 100		> 100	> 100	> 100

From PubChem BioAssay (NCI)
